From US10603345B2, “Pharmaceutical composition for treating respiratory disease” (Kunming Institute of Botany, The Chinese Academy of Sciences, priority 2015, dated 2020)

Key:
Format in all cases: in vivo
[1] = system: white blood cell count and classification in BALF of COPD model mouse; test: Effect on white blood cell count and classification in BALF of COPD model mouse; details: COPD mouse (LPS plus smoke exposure 30 days), ig 7 d, dose/kg: dexamethasone 1 mg, Test group 1 50, 2 25, 3 10, picrinine 10, vallesamine 6, scholaricine 7, 19-epi-scholaricine 2 mg, x ± SD
Experimental: (§1) Animal source: 25˜30 g male ICR mouse, from laboratory animal department of Kunming Medical University, License No. SCXK (Dian) 2011-0004.
(§2) Method and route: lipopolysaccharide (LPS) plus smoke exposure was used for 30 days to induce mouse chronic obstructive pulmonary disease model; and after intragastrical administration for 7 d at a dose of 20 mL/kg, the animal was sacrificed at the eighth day.
(§3) Picrinine group (10 mg/kg), Vallesamine group (6.0 mg/kg), Scholaricine group (7.0 mg/kg), 19-epischolaricine group (2.0 mg/kg).
(§4) Sample preparation: all the samples were prepared by using 0.5% carboxymethylcellulose sodium (0.5% CMC-Na).
Group and dose: in Test group 1, the ratio of picrinine, vallesamine, scholaricine and 19-epischolaricine by weight was 48:40:29:10, and the other groups and doses thereof were as described in Example 10.
Test index: total number of white blood cells and inflammatory cell classification in bronchoalveolar lavage fluid (BALF) were used as indexes, and were determined by full-automatic hemocytometer.

[2] = system: IL-4 in BALF of asthma model mouse; test: Effect on IL-4 in BALF of asthma model mouse; details: ELISA, ig 7 d, dose/kg: dexamethasone 2.0 mg, Test group 1 50, 2 25, picrinine 5.0, vallesamine 3.0, scholaricine 3.0, 19-epi-scholaricine 3.5 mg, x ± SD
Experimental: as §1
(§5) Method and route: ovalbumin (OVA) was used to induce mouse asthma model, and after intragastrical administration for 7 d at a dose of 20 mL/kg, the animal was sacrificed at the eighth day.
(§6) Test group 1: picrinine, vallesamine, scholaricine and 19-epischolaricine prepared in Example 1.7 were homogeneously mixed at different ratios by weight (50 mg/kg), Test group 2: the alkaloid composition prepared in Example 1.4 (25 mg/kg). […]
as §4
Group and dose: in Test group 1, the ratio of picrinine, vallesamine, scholaricine and 19-epischolaricine by weight was 25:18:15:3, and the other groups and doses thereof were as described in Example 11. […]

[3] = system: MDA in serum and BALF of asthma model mouse; test: Effect on MDA in serum and BALF of asthma model mouse; details: ig 7 d, dose/kg: dexamethasone 2.0 mg, Test group 1 50, 2 25, picrinine 5.0, vallesamine 3.0, scholaricine 3.0, 19-epi-scholaricine 3.5 mg, x ± SD
Experimental: as §1, §5, §6, §4
Group and dose: in Test group 1, the ratio of picrinine, vallesamine, scholaricine and 19-epischolaricine by weight was 8:6:5:1, and the other groups and doses thereof were as described in Example 11.
Test index: MDA in serum and BALF was used as index, and was determined by thiobarbituric acid method.

[4] = system: Hyp in homogenate of pulmonary fibrosis model mouse; test: Effect on Hyp in homogenate of pulmonary fibrosis model mouse; details: bleomycin pulmonary fibrosis mouse, ig 28 d, dose/kg: prednisone acetate 5 mg, Test group 1 50, 2 25, 3 12.5, picrinine 5.0, vallesamine 3.0, scholaricine 3.5, 19-epi-scholaricine 1.0 mg, x ± SD
Experimental: (§7) Animal source: 30˜35 g male ICR mouse, from laboratory animal department of Kunming Medical University, License No. SCXK (Dian) 2011-0004.
(§8) Method and route: bleomycin was used to induce mouse pulmonary fibrosis, and after intragastrical administration for 28 d at a dose of 20 mL/kg, the animal was sacrificed at the 29th day.
(§9) Group and dose: Sham group, Model group, Positive control group, prednisone acetate (5 mg/kg) group, Test group 1: picrinine, vallesamine, scholaricine and 19-epischolaricine prepared in Example 1.7 were mixed at different ratios by weight (50 mg/kg), Test group 2: the alkaloid composition (25 mg/kg) prepared in Example 1.5, Test group 3: the alkaloid composition (12.5 mg/kg) prepared in Example 1.6, Picrinine group (5.0 mg/kg), Vallesamine group (3.0 mg/kg), Scholaricine group (3.5 mg/kg), and 19-epischolaricine group (1.0 mg/kg).
(§10) Positive control drug: prednisone acetate tablet, Approval number: H33021207, 5 mg/tablet, produced by Zhejiang Xianju Pharmaceutical Co., Ltd., Batch No. 140146.
(§11) Sample preparation: all the samples were prepared by using 0.5% carboxymethylcellulose sodium (0.5% CMC-Na). […]
Test index: Hyp in homogenate was used as index, and was determined by enzyme linked immunosorbent assay.

[5] = system: LDH in serum of pulmonary fibrosis model mouse; test: Effect on LDH in serum of pulmonary fibrosis model mouse; details: bleomycin pulmonary fibrosis mouse, ig 28 d, dose/kg: prednisone acetate 5 mg, Test group 1 50, 2 25, 3 12.5, picrinine 5.0, vallesamine 3.0, scholaricine 3.5, 19-epi-scholaricine 1.0 mg, x ± SD
Experimental: as §7, §8, §9, §10, §11
Test index: LDH in serum was used as index, and was determined by 2, 4-dinitrophenylhydrazine method.

[6] = system: SOD in serum and homogenate of COPD model mouse; test: Effect on SOD in serum and homogenate of COPD model mouse; details: ig 7 d, dose/kg: dexamethasone 1 mg, Test group 1 50, 2 25, 3 10, picrinine 10, vallesamine 6, scholaricine 7, 19-epi-scholaricine 2 mg, x ± SD
Experimental: as §1, §2, §3, §4
Group and dose: in Test group 1, the ratio of picrinine, vallesamine, scholaricine and 19-epischolaricine by weight was 16:11:12:3, and the other groups and doses thereof were as described in Example 10.
Test index: SOD in serum and lung homogenate was used as index, and was determined by xanthine oxidase method.

[7] = system: CRP in serum in COPD model mouse; test: Effect on CRP in serum in COPD model mouse; details: ELISA, ig 7 d, dose/kg: dexamethasone 1 mg, Test group 1 50, 2 25, 3 10, picrinine 10, vallesamine 6, scholaricine 7, 19-epi-scholaricine 2 mg, x ± SD
Experimental: as §1, §2, §3, §4
Group and dose: in Test group 1, the ratio of picrinine, vallesamine, scholaricine and 19-epischolaricine by weight was 25:19:20:4, and the other groups and doses thereof were as described in Example 10.
Test index: CRP in serum was used as index, and was determined by enzyme linked immunosorbent assay.

[8] = system: SOD in serum and BALF of asthma model mouse; test: Effect on SOD in serum and BALF of asthma model mouse; details: ig 7 d, dose/kg: dexamethasone 2.0 mg, Test group 1 50, 2 25, picrinine 5.0, vallesamine 3.0, scholaricine 3.0, 19-epi-scholaricine 3.5 mg, x ± SD
Experimental: as §1, §5, §6, §4
Group and dose: in Test group 1, the ratio of picrinine, vallesamine, scholaricine and 19-epischolaricine by weight was 12:10:9:2, and the other groups and doses thereof were as described in Example 11.
Test index: SOD in serum and BALF was used as index, and was determined by xanthine oxidase method.

[9] = system: MDA in serum and homogenate of COPD model mouse; test: Effect on MDA in serum and homogenate of COPD model mouse; details: ig 7 d
Experimental: as §1, §2, §3, §4
Group and dose: in Test group 1, the ratio of picrinine, vallesamine, scholaricine and 19-epischolaricine by weight was 9:6:5:1, and the other groups and doses thereof were as described in Example 10.
Test index: MDA in serum and homogenate was used as index, and was determined by thibabituric acid method.

COC(=O)C1=C2Nc3c(O)cccc3[C@@]23CCN2C[C@@H]([C@@H](C)O)[C@@H]1C[C@H]23 [scholaricine]
Leukocyte number [1]: 2.5 ± 3.5 ×10^5/mL | Neutrophil number [1]: 0.66 ± 0.81 ×10^5/mL | IL-4 [2]: 11.21 ± 3.62 pg/mL | MDA lavage fluid ([3]; BALF): 2.43 ± 1.05 nmol/mL | MDA Serum ([3]; serum): 9.19 ± 2.77 nmol/mL | Hyp [4]: 6.5 ± 1.5 μg/g prot | LDH [5]: 12.5 ± 3.2 U/g prot | SOD homogenate ([6]; lung homogenate): 58.43 ± 7.04 U/mL | SOD Serum ([6]; serum): 93.61 ± 12.37 U/mL | CRP [7]: 24.4 ± 2.4 pg/mL | SOD lavage fluid ([8]; BALF): 76.78 ± 8.01 U/mL | SOD Serum ([8]; serum): 73.36 ± 8.44 U/mL | content of MDA (serum or homogenate not given) ([9]; vallesamine 6, scholaricine 7, 19-epi-scholaricine 2 mg/kg): significantly decrease | MDA Homogenate ([9]; lung homogenate, dose/kg: dexamethasone 1 mg, Test group 1 50, 2 25, 3 10, picrinine 10, vallesamine 6, scholaricine 7, 19-epi-scholaricine 2 mg, x ± SD): 6.09 ± 1.25 nmol/mL | MDA Serum ([9]; serum, dose/kg: dexamethasone 1 mg, Test group 1 50, 2 25, 3 10, picrinine 10, vallesamine 6, scholaricine 7, 19-epi-scholaricine 2 mg, x ± SD): 12.21 ± 3.38 nmol/mL
